Data taken from patent US20250101062A1, “ANTIMICROBIAL PEPTIDES” (Board of Regents of the University of Nebraska, priority 2023, published 2025).
Where no end group is shown, it is not given here.

Test system: S. aureus USA300 LAC biofilms
Assay: Disruption of preformed biofilms in vitro (XTT)
Format: cell-based, Staphylococcus aureus
Procedure: Effects of Peptides on Established Biofilms in Vitro. Bacteria (S. aureus USA300 LAC and E. coli E423-17) were grown in rich TSB media overnight. A second inoculation was made the next day to reach an exponential phase (OD600˜0.4). Microtiter plates (96 wells, Corning Costar Cat no. 3595), after aliquoting with 180 μL of the culture to each well, were incubated at 37° C. for 24 hours to form biofilms in rich TSB. Media were aspirated post incubation, and the attached biofilms were washed with 1×PBS to remove the planktonic bacteria. […] Biofilms treated with water served as the positive control, while media without bacterial inoculation served as the negative control. Live cells in the biofilms were quantitated using XTT as described above. Absorbance was read at 450 nm (only media with XTT containing wells served as the blank) using a ChroMate™ microtiter plate reader. Percentage biofilm growth for the peptide was plotted by assuming 100% biofilm growth in bacterial control alone. The data were represented as mean±SD; plots were generated using GraphPad prism 7, where * indicates p<0.05, **p<0.01, and ***P<0.001, and ****p<0.0001 (one-way analyses of variance).
LL-37 is known to inhibit bacterial biofilms (Overhage, et al. (2008) Infect. Immun., 76:4176-4182). However, it was unable to disrupt preformed MRSA biofilms in rich media (Mishra, et al. (2016) ACS Med. Chem. Lett., 7:117-121). Next, it was determined whether the diluted MHB medium could be useful to detect biofilm-disrupting activity for LL-37 against MRSA. An established procedure (Mishra, et al. (2016) ACS Med. Chem. Lett., 7:117-121; Duplantier, et al. (2013) Front. Immunol., 4:143) was used wherein biofilms were formed and washed as usual to remove planktonic cells. The biofilms were then treated with peptides in 12.5% MHB for 24 hours. Finally, live cells were quantified with XTT (ATCC). FIG. 2 compares the levels of live cells of MRSA in the preformed biofilms after 24 hour treatment. […] Of note is a similar pattern for both peptides in 12.5% MHB treated at various concentrations.
Bacteria (S. aureus USA300 LAC or P. aeruginosa E411-17) were grown up in TSB media overnight. A second inoculation was made the next day to reach an exponential phase (OD600˜0.4). Microtiter plates (96 wells, Corning Costar Cat No. 3595), after aliquoting with 180 μL of the culture to each well, were incubated at 37° C. for 24 hours to form biofilms in rich TSB. Media were aspirated post incubation and the attached biofilms were washed with 1×PBS to remove the planktonic bacteria. […] Biofilms treated with water served as the positive control while media without bacterial inoculation served as the negative control. Live cells in the biofilms were quantitated using the XTT as described above. Absorbance was read at 450 nm (only media with XTT containing wells served as the blank) using a ChroMate® microtiter plate reader. Percentage biofilm growth (the plot legend is antibiofilm activity) for the peptides was plotted by assuming 100% biofilm growth in bacterial control alone. The data were represented as mean±SD, plots were generated using GraphPad prism 7, where * indicates p<0.05, ** p<0.01, and ***P<0.001, and ****p<0.0001 (one-way analyses of variance).

Compound | effect on preformed biofilms (48 or 72 hour preformed biofilms) | effect on preformed biofilms (24 hours preformed biofilms, 32 μM) | peptide concentration showing biofilm disruption (24 h preformed biofilm, 12.5% MHB) [µM] | antibiofilm activity (24 h preformed biofilm, 100% MHB)
RRWWRWWR-NH2 [W543] | Better disruptive effects than daptomycin | essentially eliminated | – | –
CC[C@H](C)[C@H](NC(=O)[C@H](CCCCN)NC(=O)[C@H](CCC(=O)O)NC(=O)[C@H](CCCCN)NC(=O)[C@H](CO)NC(=O)[C@H](CCCCN)NC(=O)[C@H](CCCNC(=N)N)NC(=O)[C@H](Cc1ccccc1)NC(=O)[C@H](Cc1ccccc1)NC(=O)[C@H](CC(=O)O)NC(=O)CNC(=O)[C@H](CC(C)C)NC(=O)[C@@H](N)CC(C)C)C(=O)NCC(=O)N[C@@H](CCCCN)C(=O)N[C@@H](CCC(=O)O)C(=O)N[C@@H](Cc1ccccc1)C(=O)N[C@@H](CCCCN)C(=O)N[C@@H](CCCNC(=N)N)C(=O)N[C@H](C(=O)N[C@H](C(=O)N[C@@H](CCC(N)=O)C(=O)N[C@@H](CCCNC(=N)N)C(=O)N[C@H](C(=O)N[C@@H](CCCCN)C(=O)N[C@@H](CC(=O)O)C(=O)N[C@@H](Cc1ccccc1)C(=O)N[C@@H](CC(C)C)C(=O)N[C@@H](CCCNC(=N)N)C(=O)N[C@@H](CC(N)=O)C(=O)N[C@@H](CC(C)C)C(=O)N[C@H](C(=O)N1CCC[C@H]1C(=O)N[C@@H](CCCNC(=N)N)C(=O)N[C@H](C(=O)N[C@@H](CCC(=O)O)C(=O)N[C@@H](CO)C(=O)O)[C@@H](C)O)C(C)C)[C@@H](C)CC)C(C)C)[C@@H](C)CC [LL-37] | – | – | 32 | essentially no antibiofilm activity
